Laboratory results reported in ChEMBL document CHEMBL5715954, “Silencing c-Myc translation as a therapeutic strategy through targeting PI3Kδ and CK1ε in hematological malignancies” (Blood, 2017).

Columns and labels:
Parameters in all cases: scale not given: the % may be the effect or the level left
[1] = target: Mitogen-activated protein kinase 3 (Homo sapiens) (UniProt P27361); assay: Inhibition of human ERK1 assessed as enzyme activity at 1 uM using myelin basic protein as substrate preincubated for 20 mins followed by [gamma-33P]-ATP addition and measured after 120 mins by radiometric Hot-SpotSM Kinase assay relative to control
[2] = target: Casein kinase I isoform gamma-3 (Homo sapiens) (UniProt Q9Y6M4); assay: Inhibition of human CK1g3 assessed as enzyme activity at 1 uM using KRRRAL[pS]VASLPGL as substrate preincubated for 20 mins followed by [gamma-33P]-ATP addition and measured after 120 mins by radiometric Hot-SpotSM Kinase assay relative to control
[3] = target: T1, Serine/threonine-protein kinase haspin (Homo sapiens) (UniProt Q8TF76); assay: Inhibition of human Haspin assessed as enzyme activity at 1 uM using histone H3 as substrate preincubated for 20 mins followed by [gamma-33P]-ATP addition and measured after 120 mins by radiometric Hot-SpotSM Kinase assay relative to control
T1 sequence (whole entry): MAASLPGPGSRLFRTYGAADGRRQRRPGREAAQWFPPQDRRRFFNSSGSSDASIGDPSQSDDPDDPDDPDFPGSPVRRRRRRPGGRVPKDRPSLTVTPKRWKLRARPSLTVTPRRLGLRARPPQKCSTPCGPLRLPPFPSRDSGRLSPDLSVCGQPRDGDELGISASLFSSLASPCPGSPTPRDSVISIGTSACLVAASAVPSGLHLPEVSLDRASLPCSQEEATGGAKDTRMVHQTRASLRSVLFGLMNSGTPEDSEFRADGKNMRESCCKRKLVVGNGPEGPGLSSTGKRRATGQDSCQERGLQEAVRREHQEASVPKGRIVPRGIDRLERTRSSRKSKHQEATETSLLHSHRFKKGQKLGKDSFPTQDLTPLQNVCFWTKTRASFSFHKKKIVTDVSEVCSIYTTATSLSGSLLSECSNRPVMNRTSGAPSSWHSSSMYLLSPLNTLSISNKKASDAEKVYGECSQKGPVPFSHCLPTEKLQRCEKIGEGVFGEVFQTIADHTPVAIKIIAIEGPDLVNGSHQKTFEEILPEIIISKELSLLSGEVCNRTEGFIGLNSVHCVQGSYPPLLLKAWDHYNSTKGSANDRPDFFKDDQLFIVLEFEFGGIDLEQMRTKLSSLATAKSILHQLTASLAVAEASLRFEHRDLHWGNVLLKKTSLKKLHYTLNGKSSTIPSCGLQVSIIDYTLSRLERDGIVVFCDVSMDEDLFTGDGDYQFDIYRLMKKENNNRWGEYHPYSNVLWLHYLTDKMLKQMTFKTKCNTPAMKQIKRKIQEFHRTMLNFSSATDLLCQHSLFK

[4] = target: G protein-coupled receptor kinase 5 (Homo sapiens) (UniProt P34947); assay: Inhibition of human GRK5 assessed as enzyme activity at 1 uM using casein as substrate preincubated for 20 mins followed by [gamma-33P]-ATP addition and measured after 120 mins by radiometric Hot-SpotSM Kinase assay relative to control
[5] = target: CDK6/cyclin D3 (Homo sapiens) (UniProt P30281+Q00534); assay: Inhibition of human CDK6/cyclin D3 assessed as enzyme activity at 1 uM using RB Protein as substrate preincubated for 20 mins followed by [gamma-33P]-ATP addition and measured after 120 mins by radiometric Hot-SpotSM Kinase assay relative to control; type: protein-complex assay
[6] = target: T2, Myosin-IIIb (Homo sapiens) (UniProt Q8WXR4); assay: Inhibition of human MYO3b assessed as enzyme activity at 1 uM using myelin basic protein as substrate preincubated for 20 mins followed by [gamma-33P]-ATP addition and measured after 120 mins by radiometric Hot-SpotSM Kinase assay relative to control
T2 sequence (whole entry): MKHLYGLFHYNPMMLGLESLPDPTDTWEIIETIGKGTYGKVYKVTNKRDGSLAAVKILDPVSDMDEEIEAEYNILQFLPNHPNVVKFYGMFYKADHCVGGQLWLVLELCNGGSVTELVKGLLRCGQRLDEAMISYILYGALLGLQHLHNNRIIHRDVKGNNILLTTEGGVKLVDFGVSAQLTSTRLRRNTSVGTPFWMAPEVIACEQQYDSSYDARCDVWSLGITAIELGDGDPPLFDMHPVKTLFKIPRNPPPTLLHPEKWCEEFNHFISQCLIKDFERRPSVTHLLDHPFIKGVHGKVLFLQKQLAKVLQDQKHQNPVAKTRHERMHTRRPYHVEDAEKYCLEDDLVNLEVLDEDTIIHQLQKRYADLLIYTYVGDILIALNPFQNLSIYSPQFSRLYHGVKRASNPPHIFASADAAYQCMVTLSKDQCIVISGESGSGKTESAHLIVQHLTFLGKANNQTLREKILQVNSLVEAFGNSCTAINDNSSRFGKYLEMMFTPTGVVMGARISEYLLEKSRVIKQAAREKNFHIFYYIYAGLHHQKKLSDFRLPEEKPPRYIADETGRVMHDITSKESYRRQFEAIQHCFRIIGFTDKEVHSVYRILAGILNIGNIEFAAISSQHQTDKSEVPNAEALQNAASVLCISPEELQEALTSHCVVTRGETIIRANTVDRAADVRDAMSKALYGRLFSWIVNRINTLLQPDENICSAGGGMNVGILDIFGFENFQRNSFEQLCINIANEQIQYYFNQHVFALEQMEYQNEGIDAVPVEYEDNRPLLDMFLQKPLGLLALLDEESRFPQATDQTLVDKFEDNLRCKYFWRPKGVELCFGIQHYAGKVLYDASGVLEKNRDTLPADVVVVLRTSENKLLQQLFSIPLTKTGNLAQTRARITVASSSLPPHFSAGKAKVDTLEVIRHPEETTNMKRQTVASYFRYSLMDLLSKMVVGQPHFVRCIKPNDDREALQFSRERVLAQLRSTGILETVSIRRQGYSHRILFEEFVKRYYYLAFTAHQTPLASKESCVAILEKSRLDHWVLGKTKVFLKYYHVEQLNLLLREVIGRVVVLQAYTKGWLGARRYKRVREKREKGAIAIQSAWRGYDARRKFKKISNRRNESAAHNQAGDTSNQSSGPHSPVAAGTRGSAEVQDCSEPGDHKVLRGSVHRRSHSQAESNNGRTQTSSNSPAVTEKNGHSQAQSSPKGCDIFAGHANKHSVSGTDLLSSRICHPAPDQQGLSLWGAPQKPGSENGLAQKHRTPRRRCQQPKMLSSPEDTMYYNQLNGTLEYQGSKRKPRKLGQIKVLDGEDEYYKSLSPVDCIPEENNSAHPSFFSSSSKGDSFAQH

Mitogen-activated protein kinase 3 (Homo sapiens), sequence (P27361 whole entry, canonical isoform): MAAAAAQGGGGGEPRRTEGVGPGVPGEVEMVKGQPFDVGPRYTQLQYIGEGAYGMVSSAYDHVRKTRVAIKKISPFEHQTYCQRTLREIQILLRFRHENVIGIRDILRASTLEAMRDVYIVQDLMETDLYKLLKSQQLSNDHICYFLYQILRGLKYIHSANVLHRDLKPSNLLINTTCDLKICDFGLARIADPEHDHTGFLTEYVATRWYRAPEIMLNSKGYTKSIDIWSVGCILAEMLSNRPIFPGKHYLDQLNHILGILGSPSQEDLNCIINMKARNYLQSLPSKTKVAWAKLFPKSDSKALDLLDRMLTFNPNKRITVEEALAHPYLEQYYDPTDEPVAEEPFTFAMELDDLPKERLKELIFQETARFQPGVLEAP
Casein kinase I isoform gamma-3 (Homo sapiens), sequence (Q9Y6M4 whole entry, looked up, canonical isoform): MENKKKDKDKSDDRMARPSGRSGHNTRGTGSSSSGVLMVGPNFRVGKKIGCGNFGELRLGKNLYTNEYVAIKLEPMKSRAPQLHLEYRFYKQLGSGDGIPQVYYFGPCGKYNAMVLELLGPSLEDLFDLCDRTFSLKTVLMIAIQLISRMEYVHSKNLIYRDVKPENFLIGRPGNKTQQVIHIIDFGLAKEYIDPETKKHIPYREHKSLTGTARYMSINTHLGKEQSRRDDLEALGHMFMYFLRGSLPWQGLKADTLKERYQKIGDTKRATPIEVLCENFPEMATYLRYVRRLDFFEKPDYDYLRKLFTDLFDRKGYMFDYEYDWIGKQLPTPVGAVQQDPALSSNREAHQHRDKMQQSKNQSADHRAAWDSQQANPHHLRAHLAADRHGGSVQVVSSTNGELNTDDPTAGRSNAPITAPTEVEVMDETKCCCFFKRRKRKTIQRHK
G protein-coupled receptor kinase 5 (Homo sapiens), sequence (P34947 whole entry, looked up): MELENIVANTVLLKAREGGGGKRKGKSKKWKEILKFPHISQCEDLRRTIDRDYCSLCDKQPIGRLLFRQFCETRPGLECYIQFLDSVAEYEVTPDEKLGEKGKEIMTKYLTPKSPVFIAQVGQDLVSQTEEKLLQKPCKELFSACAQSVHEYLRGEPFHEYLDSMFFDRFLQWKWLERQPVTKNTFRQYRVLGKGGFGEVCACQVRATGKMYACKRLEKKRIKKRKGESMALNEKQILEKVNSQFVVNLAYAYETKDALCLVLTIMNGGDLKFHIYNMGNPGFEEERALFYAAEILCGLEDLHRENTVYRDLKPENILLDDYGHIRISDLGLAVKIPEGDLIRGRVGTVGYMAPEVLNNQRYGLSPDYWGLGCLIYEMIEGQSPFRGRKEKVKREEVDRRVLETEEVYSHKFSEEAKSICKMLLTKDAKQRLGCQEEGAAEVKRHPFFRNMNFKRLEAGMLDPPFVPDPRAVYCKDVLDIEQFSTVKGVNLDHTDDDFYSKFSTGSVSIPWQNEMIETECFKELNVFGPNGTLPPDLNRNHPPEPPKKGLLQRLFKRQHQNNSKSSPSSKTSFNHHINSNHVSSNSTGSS

Row | SMILES | Activity [1] [%] | Activity [2] [%] | Activity [3] [%] | Activity [4] [%] | Activity [5] [%] | Activity [6] [%]
1 | CC[C@H](Nc1ncnc2[nH]cnc12)c1nc2cccc(F)c2c(=O)n1-c1ccccc1 | 96 | 93.1 | 95.5 | 104 | 102 | 93.5
2 | C[C@H](Nc1ncnc2nc[nH]c12)c1cc2cccc(Cl)c2c(=O)n1-c1ccccc1 | 95.9 | 92.9 | 96.5 | 106 | 96.5 | 114
3 | CC(C)Oc1ccc(-c2nn([C@@H](C)c3oc4ccc(F)cc4c(=O)c3-c3cccc(F)c3)c3ncnc(N)c23)cc1F [UMBRALISIB] | 95.8 | 95.4 | 93.7 | 111 | 97.8 | 121
